# Patent US20130079370A1, “Method for the Inhibition of Deubiquitinating Activity” (priority 2011, published 2013)
# Tested on: proteasome reporter cell line MelJuSo Ub-YFP (UbG76V-YFP)
# Assay: Ub-YFP proteasome reporter cell line, accumulation of reporter
# Format: cell-based
# Details: Homo sapiens, MEL-JUSO; immunoblotting and flow cytometry; read-out: IC50, dose dependent accumulation of the Ub-YFP reporter
# Description: b-AP15 blocks cellular proteasome function, as confirmed by use of a reporter cell line, which expresses ubiquitin tagged to yellow fluorescent protein (UbG76V-YFP) constitutively targeted for proteasomal degradation (12). […] Since inhibition of proteasome function is characterized by defects in ubiquitin turnover (13) colon carcinoma HCT116 cells were treated with b-AP15 and the level of ubiqutin conjugation analyzed by immunoblotting. […] The increase in polyubiquitin is associated with a strong proteotoxic response characterized by induction of HSPA6 (Hsp70B′), HSPA1B and DNAJB1 (Hsp40).
# MCF7 cells were maintained in MEM/10% fetal calf serum. HCT-116 p53+/+, p53−/−, Bcl-2+/+, PUMA−/− and BAX−/− cells were maintained in McCoy's 5A modified medium/10% fetal calf serum. The HCT-116 p53+/+, p53−/−, PUMA−/− and BAX−/− were generated as described (36). The HCT-116 Bcl-2+/+ cell line was generated by transfecting parental HCT-116 p53+/+ cells with pCEP4 Bcl-2 (Addgene plasmid 16461) (37) and isolating high expression clones. […]
# b-AP15 inhibits degradation of ubiquitin-tagged YFP in a proteasome reporter cell line (FIG. 1a). Levels of ^UbG76V-YFP accumulation were determined by flow cytometry and immunoblotting; immunoblot of ubiquitin conjugation in HCT-116 cells treated with b-AP15 (1 μM) or bortezomib (100 nM) (FIG. 1b). […]
structure (smiles),measurement,value
"C=CC(=O)N1C/C(=C\c2ccc([N+](=O)[O-])cc2)C(=O)/C(=C/c2ccc([N+](=O)[O-])cc2)C1 [b-AP15, (3E,5E)-3,5-bis[(4-nitrophenyl)methylidene]-1-(prop-2-enoyl)piperidin-4-one]",IC50,0.8 µM
